Measured values: ChEMBL document CHEMBL4715810, “Treatment of Metabolic Disorders with CB-1 Receptor Inverse Agonists” (ACS Med Chem Lett, 2016)

Experiments:
[1] = target: Cannabinoid receptor 1 (Homo sapiens, UniProt P21554); test: Inverse agonist activity at human CB1 receptor expressed in HEK293 cells assessed as forskolin-stimulated cAMP accumulation measured after 30 mins by HTRF assay; format: functional, cell-based
[2] = target: Cannabinoid receptor 2 (Homo sapiens, UniProt P34972); test: Inverse agonist activity at human CB2 receptor expressed in HEK293 cells assessed as forskolin-stimulated cAMP accumulation measured after 30 mins by HTRF assay; format: functional, cell-based
Sequence of Cannabinoid receptor 2 (P34972 whole entry): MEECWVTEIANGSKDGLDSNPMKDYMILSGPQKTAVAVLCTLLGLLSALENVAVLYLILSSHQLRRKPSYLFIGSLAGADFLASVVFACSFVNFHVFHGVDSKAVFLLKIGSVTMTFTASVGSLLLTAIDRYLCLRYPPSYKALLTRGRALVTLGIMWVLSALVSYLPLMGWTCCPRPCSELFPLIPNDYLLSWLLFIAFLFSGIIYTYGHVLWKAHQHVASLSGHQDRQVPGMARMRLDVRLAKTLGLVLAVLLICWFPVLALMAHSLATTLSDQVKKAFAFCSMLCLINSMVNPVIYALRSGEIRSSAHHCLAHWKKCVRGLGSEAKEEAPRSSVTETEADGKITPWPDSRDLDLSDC

Sequence of Cannabinoid receptor 1 (P21554 whole entry): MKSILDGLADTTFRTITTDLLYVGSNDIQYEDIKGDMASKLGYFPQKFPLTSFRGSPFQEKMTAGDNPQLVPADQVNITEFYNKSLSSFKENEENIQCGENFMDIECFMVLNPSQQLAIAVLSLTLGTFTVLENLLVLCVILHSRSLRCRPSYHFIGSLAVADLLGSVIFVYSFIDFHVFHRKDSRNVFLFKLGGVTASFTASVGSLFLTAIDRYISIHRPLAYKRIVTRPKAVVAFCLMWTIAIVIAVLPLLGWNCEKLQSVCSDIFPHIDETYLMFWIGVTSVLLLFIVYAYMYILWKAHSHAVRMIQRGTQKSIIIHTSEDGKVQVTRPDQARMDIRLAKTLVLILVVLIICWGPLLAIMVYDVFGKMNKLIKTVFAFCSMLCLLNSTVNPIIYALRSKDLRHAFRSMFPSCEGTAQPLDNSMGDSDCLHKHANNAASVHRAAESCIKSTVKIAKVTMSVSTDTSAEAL

Structure (SMILES) | EC50 [1] | EC50 [2]
Clc1ccc(C(c2ccc(Cl)cc2)c2ccc3nncc(NC4CCC(Nc5ccccc5)CC4)c3c2)cc1 (centres undefined) | 0.099 µM | > 10 µM
O=C(O)c1ccccc1S(=O)(=O)N1CCC(Nc2cnnc3ccc(C(c4ccc(Cl)cc4)c4ccc(Cl)cc4)cc23)CC1 | – | > 10 µM
O=S(=O)(N1CCC(Nc2cnnc3ccc(C(O)(c4ccc(Cl)cc4)c4ccc(Cl)cc4)cc23)CC1)C(F)(F)F | – | > 10 µM
